In PubChem BioAssay (NCI):
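Method: 48-hour compound exposure of cells in 96-well plates, five concentrations, linear interpolation of endpoints. The concentration for full growth arrest is given as TGI.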

Experiments:
Assay in all cases: NCI tumour cell line growth inhibition, 48 h
786-0 renal = test system: 786-0 renal
A498 renal = test system: A498 renal
A549 NSCLC = test system: A549 NSCLC
ACHN renal = test system: ACHN renal
BT-549 breast = test system: BT-549 breast
CAKI-1 renal = test system: CAKI-1 renal
CCRF-CEM leukemia = test system: CCRF-CEM leukemia
COLO 205 colon = test system: COLO 205 colon
DU-145 prostate = test system: DU-145 prostate
EKVX NSCLC = test system: EKVX NSCLC
HCC-2998 colon = test system: HCC-2998 colon
HCT-116 colon = test system: HCT-116 colon
HCT-15 colon = test system: HCT-15 colon
HL-60(TB) leukemia = test system: HL-60(TB) leukemia
HOP-62 NSCLC = test system: HOP-62 NSCLC
HOP-92 NSCLC = test system: HOP-92 NSCLC
HS 578T breast = test system: HS 578T breast
HT29 colon = test system: HT29 colon
IGROV1 ovarian = test system: IGROV1 ovarian
K-562 leukemia = test system: K-562 leukemia
KM12 colon = test system: KM12 colon
LOX IMVI melanoma = test system: LOX IMVI melanoma
MALME-3M melanoma = test system: MALME-3M melanoma
MCF7 breast = test system: MCF7 breast
MDA-MB-231 breast = test system: MDA-MB-231 breast
MDA-MB-435 = test system: MDA-MB-435
MDA-N = test system: MDA-N
MOLT-4 leukemia = test system: MOLT-4 leukemia
NCI-H226 lung = test system: NCI-H226 lung
NCI-H23 lung = test system: NCI-H23 lung
NCI-H460 lung = test system: NCI-H460 lung
NCI-H522 lung = test system: NCI-H522 lung
NCI/ADR-RES ovarian = test system: NCI/ADR-RES ovarian
OVCAR-3 ovarian = test system: OVCAR-3 ovarian
OVCAR-4 ovarian = test system: OVCAR-4 ovarian
OVCAR-8 ovarian = test system: OVCAR-8 ovarian
PC-3 prostate = test system: PC-3 prostate
RPMI-8226 leukemia = test system: RPMI-8226 leukemia
RXF 393 renal = test system: RXF 393 renal
SF-268 CNS = test system: SF-268 CNS
SF-295 CNS = test system: SF-295 CNS
SF-539 CNS = test system: SF-539 CNS
SK-MEL-28 melanoma = test system: SK-MEL-28 melanoma
SK-MEL-5 melanoma = test system: SK-MEL-5 melanoma
SK-OV-3 ovarian = test system: SK-OV-3 ovarian
SN12C renal = test system: SN12C renal
SNB-75 CNS = test system: SNB-75 CNS
SR leukemia = test system: SR leukemia
SW-620 colon = test system: SW-620 colon
T-47D breast = test system: T-47D breast
TK-10 renal = test system: TK-10 renal
U251 CNS = test system: U251 CNS
UACC-257 melanoma = test system: UACC-257 melanoma
UACC-62 melanoma = test system: UACC-62 melanoma
UO-31 renal = test system: UO-31 renal
M14 melanoma = test system: M14 melanoma
OVCAR-5 ovarian = test system: OVCAR-5 ovarian
SK-MEL-2 melanoma = test system: SK-MEL-2 melanoma
SNB-19 CNS = test system: SNB-19 CNS

Measured: TGI

COc1ccc(CNc2nc3ccccc3nc2C(=O)O)cc1OC
not listed: M14 melanoma | OVCAR-5 ovarian | SK-MEL-2 melanoma | SNB-19 CNS
> 100 µM: all other assays above

CCOC(=O)c1cc2c([nH]1)c(OC(C)=O)cc1c2ccn1Cc1ccccc1
not listed: ACHN renal | NCI-H522 lung | TK-10 renal
> 100 µM: all other assays above
